Reference: PMC8911752, “The Synthesis and Initial Evaluation of MerTK Targeted PET Agents” (Molecules, 2022)

Assays:
Flt3 = molecular target: T1, Flt3 (Homo sapiens, UniProt P36888); assay: Microcapillary electrophoresis (MCE) kinase assay, Flt3; type: biochemical; conditions: ATP at Km, mean of two or more independent assays
T1 sequence (P36888 27-993): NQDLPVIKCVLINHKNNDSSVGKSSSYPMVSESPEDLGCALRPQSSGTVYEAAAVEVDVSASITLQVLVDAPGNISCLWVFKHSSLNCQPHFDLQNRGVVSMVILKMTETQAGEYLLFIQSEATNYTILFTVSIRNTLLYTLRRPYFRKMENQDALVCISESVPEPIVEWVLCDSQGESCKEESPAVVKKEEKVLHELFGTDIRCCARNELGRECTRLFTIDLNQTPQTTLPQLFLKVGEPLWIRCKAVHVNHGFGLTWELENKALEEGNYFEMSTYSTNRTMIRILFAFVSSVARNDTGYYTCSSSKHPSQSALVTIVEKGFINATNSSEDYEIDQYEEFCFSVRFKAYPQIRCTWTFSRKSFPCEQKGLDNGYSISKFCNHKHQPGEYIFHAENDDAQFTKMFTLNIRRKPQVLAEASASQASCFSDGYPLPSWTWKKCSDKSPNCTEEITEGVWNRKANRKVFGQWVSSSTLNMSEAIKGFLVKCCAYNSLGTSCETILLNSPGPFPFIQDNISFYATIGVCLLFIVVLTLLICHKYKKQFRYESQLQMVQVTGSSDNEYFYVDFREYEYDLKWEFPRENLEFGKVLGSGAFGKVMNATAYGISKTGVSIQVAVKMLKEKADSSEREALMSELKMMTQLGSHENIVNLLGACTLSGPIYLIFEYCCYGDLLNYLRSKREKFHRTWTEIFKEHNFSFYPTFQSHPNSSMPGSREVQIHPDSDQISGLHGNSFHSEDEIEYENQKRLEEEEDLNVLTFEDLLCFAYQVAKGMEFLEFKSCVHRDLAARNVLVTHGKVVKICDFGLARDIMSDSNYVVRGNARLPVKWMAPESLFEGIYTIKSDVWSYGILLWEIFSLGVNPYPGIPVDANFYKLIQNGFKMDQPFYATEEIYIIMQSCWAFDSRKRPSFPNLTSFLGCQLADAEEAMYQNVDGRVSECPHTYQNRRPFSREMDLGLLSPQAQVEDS
Method: The inhibitory activities of standards towards MerTK, Axl, Tyro3 and Flt3 were determined in our in-house microcapillary electrophoresis (MCE) assays.
Microcapillary Electrophoresis (MCE) Assays were performed with literature method. […] All reactions were terminated by addition of 20 µL of 70 mM EDTA. After an 180 min incubation, phosphorylated and unphosphorylated substrate peptides (Table 2) were separated in buffer supplemented with 1 x CR-8 on a LabChip EZ Reader equipped with a 12-sipper chip. Data were analyzed using EZ Reader software.

[1] = system: B16F10 tumor-bearing mice; assay: PET imaging in B16F10 tumor-bearing mice; type: in vivo; conditions: initial PET study, 18F-labeled agents
Method: Evaluation of the PET agent [^18F]-MerTK-6 was performed on B16F10 tumor-bearing mice. At 30 min post-injection (p.i), the uptake in tumor, liver, kidney, and muscle was 4.65 ± 1.25, 14.79 ± 0.99, 10.42 ± 1.01, and 2.51 ± 0.48%ID/g, respectively. The uptake at 2 h p.i. was 4.79 ± 0.24, 9.72 ± 1.56, 5.34 ± 1.25, and 1.55 ± 0.23%ID/g, respectively. Overall, the tumor uptake was maintained at ~5%ID/g and the tumor to muscle contrast increased to 3.09 at 2 h p.i, compared with 1.86 at 0.5 h p.i.
All animal studies were reviewed and approved by The University of North Carolina at Chapel Hill Institutional Animal Care and Use Committee. The B16F10 tumor cell was obtained from the LCCC tissue culture facility (the University of North Carolina at Chapel Hill, Chapel Hill, NC, USA). The B16F10 tumor-bearing […] mouse model was prepared as described previously. Briefly, B16/F10 cells were subcutaneously injected on the right flank of C57BL/6 female mice (Jackson Laboratory). The tumor volume was measured daily. When the tumor size reached 100 mm^3, the mice were used for PET imaging studies.
B16F10 tumor-bearing mice (n = 3/group) were intravenously injected via the tail vein with tracers. At 30 min and 120 min post-injection, a 10-min static emission scan was acquired with a SuperArgus small-animal PET/CT scanner. The regions of interests (ROIs) were drawn over the tumor and other organs and calculated as %ID/g. The mean uptake and standard deviation were calculated.

[2] = system: B16F10 tumor-bearing mice; assay: PET imaging in B16F10 tumor-bearing mice; type: in vivo; conditions: 68Ga-labeled, initial pilot study in mice

IC50 (Flt3) | tumor uptake and contrast compared with MerTK-5 [1] | tumor uptakes [2] | Structure (SMILES)
1 µM | – | – | CCC[C@H](C)Nc1ncc2c(C3CCN(CCF)CC3)cn([C@H]3CC[C@H](O)CC3)c2n1 [MerTK-5]
5.5 µM | more prominent tumor uptake and contrast | – | C[C@H](Nc1ncc2c(C3CCN(CCF)CC3)cn([C@H]3CC[C@H](O)CC3)c2n1)c1ccccc1 [MerTK-6]
> 30 µM | – | – | C[C@H](Nc1ncc2c(C3CCN(C)CC3)cn([C@H]3CC[C@H](O)CC3)c2n1)c1ccccc1 [MerTK-2]
> 30 µM | – | < 1 %ID/g | C[C@H](Nc1ncc2c(C3CCN(C(=S)Nc4ccc(CC5CN(CC(=O)O)CCN(CC(=O)O)CCN5CC(=O)O)cc4)CC3)cn([C@H]3CC[C@H](O)CC3)c2n1)c1ccccc1 (stereo partly drawn) [MerTK-4]
